What was measured:
[1] = Particle size profile of irbesartan samples; type: physicochemical; conditions: for D (v, 0.1) particle size: 10 % of particles smaller; for D (v, 0.5) particle size: 50 % of particles smaller; for D (v, 0.9) particle size: 90 % of particles smaller
Experimental: The particle size profile of samples A-D of irbesartan were tested (see Table 1). It can be seen that across the range the particle sizes were very similar. Thus any difference in dissolution kinetics of samples from the relevant batch cannot be attributed to particle size. The D values represent particle size medians from the detected particle size distribution curves. D(v, x) means that 100x % of particles are smaller than the corresponding D value, and 100-100x % of particles are larger. The samples were also subjected to the Brunauer-Emmett-Teller (BET)-nitrogen adsorption analysis to determine the total surface area of the samples as follows: […]

[2] = Gravimetric vapour sorption (GVS), water vapour adsorption; type: physicochemical; conditions: for water vapour adsorption (comparison): GVS, compared with samples B or C
Source text: GVS is a method traditionally used to detect quantitative weight changes of samples as a function of the relative humidity (RH). Samples, which can comprise solid-state samples such as powders and tablets, but also liquids, are exposed to a defined humidity profile. The corresponding weight change is continuously recorded via an ultra-microbalance. Defined humidity levels are established by mixing defined ratios of a dry carrier gas, usually nitrogen, and a wet stream, typically a water vapour saturated carrier gas such as nitrogen. The RH level is then controlled by the ratio of the dry:wet stream. To maintain isothermal conditions, the GVS apparatus which comprises a microbalance and humidification unit is set up in an incubator system held at a defined temperature. The primary information obtained by a typical commercial GVS system is: • Kinetics of water uptake: • The kinetic of the water uptake is a mass vs. time plot at constant RH level. The equilibrium between sample and humidity can be determined from this information. • Sorption isotherms: • The equilibrium weight changes at each humidity are related to the dry mass of the sample (i.e. the equilibrium mass at 0% RH). The equilibrium weight changes as a function of the RH level are the corresponding sorption isotherms of the sample. Typical sorption isotherms comprise adsorption, i.e. increasing RH levels, and desorption, i.e. decreasing RH levels, cycles. Typically, RH ranges from 0-95% RH are covered. For this purpose, water vapour sorption experiments can be carried out as follows: • Adsorption segment range 0-98% RH, preferably 0-50% RH. • Adsorption segment RH-step size of 10% RH or smaller, preferably 5% RH or 2.5% RH. • Desorption segment range 98-0% RH, preferably 50-0% RH. • Desorption segment RH-step size of 10% RH or smaller, preferably 5% RH or 2.5% RH. • Equilibration times at each humidity of 15 minutes and longer, preferably 30 minutes and longer, most preferably 60 minutes and longer. The important factor here is that all water vapour sorption uptakes used for further evaluation do reach equilibrium, i.e. that the weight change over time within each RH-step kinetic should be very small at the end of each RH segment. For these purposes, typical equilibration times are given. • Isothermal temperature in the range 5-50° C., preferably 25-37° C., most preferably about 25° C. • Sample masses of 10-50 mg, preferably 15-50 mg. […] Compression/compaction of the sample should be avoided in order to ensure that there are enough voids in any powder sample to allow the water vapour to penetrate. From these experiments, the primary information obtained is the sorption kinetic (mass vs. time at constant humidity) as well as the conventional sorption isotherm (weight change related to dry value vs. RH level), as previously described. The four samples A-D of irbesartan were also subjected to GVS to assess the extent of any water adsorption. […] The water adsorption results obtained from the GVS analysis are illustrated in Table 3.

Question: For `CCCCC1=NC2(CCCC2)C(=O)N1Cc1ccc(-c2ccccc2-c2nnn[nH]2)cc1` [Sample C, irbesartan], which “D (v, 0.1) particle size” value [1] is on record?
Answer: 1 μm

Question: And the “D (v, 0.5) particle size” value [1]?
Answer: 5 μm

Question: And the “D (v, 0.9) particle size” value [1]?
Answer: 13 μm

Question: And the “Water Adsorption” value ([2]; 5 % RH)?
Answer: 0.04 wt %

Question: What about the “Water Adsorption” value ([2]; 10 % RH) of the same compound?
Answer: 0.07 wt %

Question: And the “Water Adsorption” value ([2]; 15 % RH)?
Answer: 0.08 wt %

Question: What about the “Water Adsorption” value ([2]; 20 % RH) of the same compound?
Answer: 0.09 wt %

Question: What about the “Water Adsorption” value ([2]; 25 % RH) of the same compound?
Answer: 0.11 wt %

Question: And the “Water Adsorption” value ([2]; 30 % RH)?
Answer: 0.13 wt %

Question: What about the “Water Adsorption” value ([2]; 35 % RH) of the same compound?
Answer: 0.14 wt %

Question: What about the “Water Adsorption” value ([2]; 40 % RH) of the same compound?
Answer: 0.15 wt %

Question: What about the “Water Adsorption” value ([2]; 50 % RH) of the same compound?
Answer: 0.18 wt %

Question: What about the “Water Adsorption” value ([2]; 60 % RH) of the same compound?
Answer: 0.21 wt %

Question: And the “Water Adsorption” value ([2]; 70 % RH)?
Answer: 0.23 wt %

Question: What about the “Water Adsorption” value ([2]; 80 % RH) of the same compound?
Answer: 0.27 wt %

Question: What about the “Water Adsorption” value ([2]; 90 % RH) of the same compound?
Answer: 0.31 wt %

Question: With `CCCCC1=NC2(CCCC2)C(=O)N1Cc1ccc(-c2ccccc2-c2nnn[nH]2)cc1` [Sample B, irbesartan] as the compound, how does the “D (v, 0.1) particle size” value [1] read?
Answer: 1 μm

Question: And the “D (v, 0.5) particle size” value [1]?
Answer: 3 μm

Question: And the “D (v, 0.9) particle size” value [1]?
Answer: 17 μm

Question: What about the “Water Adsorption” value ([2]; 5 % RH) of the same compound?
Answer: 0.03 wt %

Question: What about the “Water Adsorption” value ([2]; 10 % RH) of the same compound?
Answer: 0.04 wt %

Question: And the “Water Adsorption” value ([2]; 15 % RH)?
Answer: 0.06 wt %

Question: And the “Water Adsorption” value ([2]; 20 % RH)?
Answer: 0.07 wt %

Question: What about the “Water Adsorption” value ([2]; 25 % RH) of the same compound?
Answer: 0.09 wt %

Question: What about the “Water Adsorption” value ([2]; 30 % RH) of the same compound?
Answer: 0.10 wt %

Question: What about the “Water Adsorption” value ([2]; 35 % RH) of the same compound?
Answer: 0.11 wt %

Question: And the “Water Adsorption” value ([2]; 40 % RH)?
Answer: 0.13 wt %

Question: What about the “Water Adsorption” value ([2]; 50 % RH) of the same compound?
Answer: 0.15 wt %

Question: What about the “Water Adsorption” value ([2]; 60 % RH) of the same compound?
Answer: 0.18 wt %

Question: And the “Water Adsorption” value ([2]; 70 % RH)?
Answer: 0.20 wt %

Question: And the “Water Adsorption” value ([2]; 80 % RH)?
Answer: 0.23 wt %

Question: What about the “Water Adsorption” value ([2]; 90 % RH) of the same compound?
Answer: 0.28 wt %

Question: What does the source list for `CCCCC1=NC2(CCCC2)C(=O)N1Cc1ccc(-c2ccccc2-c2nnn[nH]2)cc1` [Sample D, irbesartan]?
Answer: D (v, 0.1) particle size [1]: 1 μm; D (v, 0.5) particle size [1]: 3 μm; D (v, 0.9) particle size [1]: 7 μm; Water Adsorption ([2]; 5 % RH): 0.07 wt %; Water Adsorption ([2]; 10 % RH): 0.10 wt %; Water Adsorption ([2]; 15 % RH): 0.13 wt %; Water Adsorption ([2]; 20 % RH): 0.16 wt %; Water Adsorption ([2]; 25 % RH): 0.19 wt %; Water Adsorption ([2]; 35 % RH): 0.23 wt %; Water Adsorption ([2]; 40 % RH): 0.26 wt %; Water Adsorption ([2]; 50 % RH): 0.33 wt %; Water Adsorption ([2]; 60 % RH): 0.39 wt %; Water Adsorption ([2]; 70 % RH): 0.46 wt %; Water Adsorption ([2]; 80 % RH): 0.52 wt %; Water Adsorption ([2]; 90 % RH): 0.63 wt %; water vapour adsorption (comparison) [2]: greater water vapour adsorption

Question: Which “D (v, 0.1) particle size” value [1] does the source give for `CCCCC1=NC2(CCCC2)C(=O)N1Cc1ccc(-c2ccccc2-c2nnn[nH]2)cc1` [Sample A, irbesartan] here?
Answer: 1 μm

Question: And the “D (v, 0.5) particle size” value [1]?
Answer: 3 μm

Question: What about the “D (v, 0.9) particle size” value [1] of the same compound?
Answer: 12 μm

Question: And the “Water Adsorption” value ([2]; 5 % RH)?
Answer: 0.06 wt %

Question: What about the “Water Adsorption” value ([2]; 10 % RH) of the same compound?
Answer: 0.09 wt %

Question: What about the “Water Adsorption” value ([2]; 15 % RH) of the same compound?
Answer: 0.12 wt %

Question: What about the “Water Adsorption” value ([2]; 20 % RH) of the same compound?
Answer: 0.14 wt %

Question: What about the “Water Adsorption” value ([2]; 25 % RH) of the same compound?
Answer: 0.17 wt %

Question: And the “Water Adsorption” value ([2]; 30 % RH)?
Answer: 0.20 wt %

Question: And the “Water Adsorption” value ([2]; 35 % RH)?
Answer: 0.22 wt %

Question: And the “Water Adsorption” value ([2]; 40 % RH)?
Answer: 0.24 wt %

Question: What about the “Water Adsorption” value ([2]; 50 % RH) of the same compound?
Answer: 0.29 wt %

Question: What about the “Water Adsorption” value ([2]; 60 % RH) of the same compound?
Answer: 0.34 wt %

Question: And the “Water Adsorption” value ([2]; 70 % RH)?
Answer: 0.39 wt %

Question: What about the “Water Adsorption” value ([2]; 80 % RH) of the same compound?
Answer: 0.44 wt %

Question: And the “Water Adsorption” value ([2]; 90 % RH)?
Answer: 0.52 wt %

Question: What about the “water vapour adsorption (comparison)” value [2] of the same compound?
Answer: greater water vapour adsorption

Question: And the “Rel. adsorbed amount n” value ([2]; RH 0.33 %)?
Answer: 0.0258 wt %

Question: And the “Abs. adsorbed amount n” value ([2]; RH 4.98 %)?
Answer: 0.0110 mg

Question: What about the “Rel. adsorbed amount n” value ([2]; RH 4.98 %) of the same compound?
Answer: 0.0592 wt %

Question: And the “Abs. adsorbed amount n” value ([2]; RH 10.01 %)?
Answer: 0.0166 mg

Question: And the “Rel. adsorbed amount n” value ([2]; RH 10.01 %)?
Answer: 0.0894 wt %

Question: What about the “Abs. adsorbed amount n” value ([2]; RH 15.00 %) of the same compound?
Answer: 0.0219 mg

Question: What about the “Rel. adsorbed amount n” value ([2]; RH 15.00 %) of the same compound?
Answer: 0.1179 wt %

Question: What about the “Abs. adsorbed amount n” value ([2]; RH 19.99 %) of the same compound?
Answer: 0.0265 mg

Question: And the “Rel. adsorbed amount n” value ([2]; RH 19.99 %)?
Answer: 0.1427 wt %

Question: What about the “Abs. adsorbed amount n” value ([2]; RH 25.02 %) of the same compound?
Answer: 0.0320 mg

Question: What about the “Rel. adsorbed amount n” value ([2]; RH 25.02 %) of the same compound?
Answer: 0.1723 wt %

Question: What about the “Abs. adsorbed amount n” value ([2]; RH 30.00 %) of the same compound?
Answer: 0.0369 mg

Question: And the “Rel. adsorbed amount n” value ([2]; RH 30.00 %)?
Answer: 0.1987 wt %

Question: And the “Rel. adsorbed amount n” value ([2]; RH 34.98 %)?
Answer: 0.2207 wt %

Question: What about the “Rel. adsorbed amount n” value ([2]; RH 40.02 %) of the same compound?
Answer: 0.2439 wt %

Question: What about the “Rel. adsorbed amount n” value ([2]; RH 49.98 %) of the same compound?
Answer: 0.2902 wt %

Question: What about the “Rel. adsorbed amount n” value ([2]; RH 60.00 %) of the same compound?
Answer: 0.3392 wt %

Question: And the “Rel. adsorbed amount n” value ([2]; RH 70.02 %)?
Answer: 0.3855 wt %

Question: And the “Rel. adsorbed amount n” value ([2]; RH 79.99 %)?
Answer: 0.4372 wt %

Question: And the “Rel. adsorbed amount n” value ([2]; RH 90.01 %)?
Answer: 0.5152 wt %

Question: What about the “Rel. adsorbed amount n” value ([2]; RH 93.03 %) of the same compound?
Answer: 0.5233 wt %

Reference: patent publication US20090312380A1, “NOVEL COMPOSITIONS AND METHODS” (priority 2006, published 2009)
